Values joined by “and” are separate entries in the source; they are usually repeats but may differ in a detail not shown here. Equal entries are not always repeated.
Tests used:
[1] = Nitroxyl production via 1H NMR protocol using TXPTS (NMR half-lives); assay type: physicochemical; conditions: phosphate buffer containing TXPTS (HNO trap); pH 7.4, 0.25 M phosphate buffer, 5 mM TXPTS, 1 mM compound, 37° C., spectra over 8 hours; read-out: NMR-T1/2
Experimental: The ^1H NMR procedure used was based on an HPLC protocol developed by S. Bruce King and coworkers (Reisz et al., Org. Lett. 11:2719-2721 (2009), Reisz et al., J. Am. Chem. Soc. 133:11675-11685 (2011) and Guthrie et al., J. Org. Chem. 80:1338-1348 (2015)). According to this procedure, the amount of HNO released from a pyrazolone derivative compound was determined by reacting the compound with the triarylphosphine TXPTS and monitoring the resulting aza-ylide formation.
The procedure for determining the amount of HNO released from certain compounds from Table 1 was as follows.
Tris(4,6-dimethyl-3-sulfanatophenyl)phosphine trisodium salt (TXPTS) was of reagent grade and used without further purification. Synthetic TXPTS aza-ylide was obtained through the amidation of TXPTS using hydroxylamine O-sulfonic acid in water (Armstrong et al., Org. Lett. 7:713-716 (2005)). All other materials were of reagent grade and used without further purification.
All ^1H NMR spectra were obtained in an adjusted-to pH 7.4 solution containing 0.25 M phosphate buffer, 0.2 mM of the metal chelator diethylenetriaminepentaacetic acid (“DTPAC”), and 10% D2O on a Bruker Avance 250 MHz FT-NMR spectrometer using a 1 second presaturation pulse to suppress the water signal. To a nitrogen-purged NMR solution (1.00 mL) containing TXPTS (3.3 mg, 5 mM) was added a pyrazolone derivative compound (10 μL of 100 mM in methanol-d4) to give 1 mM as the initial concentration of the pyrazolone derivative compound. The solution was briefly mixed, about 0.5 mL was transferred to a nitrogen-purged NMR tube and an initial ^1H NMR spectrum (time=0) was obtained. Thereafter, the sample was internally incubated at 37° C. and ^1H NMR spectra were collected at regular intervals for 8 hours.
The HNO donating pyrazolone derivative compound, by-product (e.g., (III) in Scheme 1), and TXPTS aza-ylide concentrations, determined from NMR spectra taken over 8 hours, were plotted as a function of time, and each data set was fitted to a single exponential function. The NMR half-lives for the disappearance of the HNO donating pyrazolone derivative compound and the appearance of by-product and TXPTS aza-ylide were determined from the respective plots. […] A control compound, compound 7 disclosed in WO 2013/059194, was also evaluated.

[2] = In vitro plasma stability, human plasma; assay type: in vitro ADME; conditions: male, pH 7.4, 5 μM, 37° C., sampling 0-360 minutes, read-out: T1/2 Human
Procedure, shortened: (§1)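 Pooled plasma at pH 7.4 with sodium heparin or citrate anticoagulant; compound at 5 μM, 37° C with shaking, triplicate samples at 0–360 min. Quenched in acetonitrile/1% formic acid with internal standard; LC-MS/MS peak-area ratios without standard curve; T1/2 from percent remaining.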

[3] = In vitro plasma stability, dog plasma; assay type: in vitro ADME; conditions: male, pH 7.4, 5 μM, 37° C., sampling 0-360 minutes, read-out: T1/2 Dog
Procedure, shortened: as §1

[4] = In vitro plasma stability, rat plasma; assay type: in vitro ADME; conditions: male, pH 7.4, 5 μM, 37° C., sampling 0-360 minutes, read-out: T1/2 Rat
Procedure, shortened: as §1

normal beagle dogs = experiment: Pharmacodynamic activity: systolic blood pressure decrease in telemetered dogs after oral dose; assay type: in vivo, dog; conditions: beagle dogs (n=3), single oral dose 30 mg/kg in PEG300, first 2 hr post-dose relative to baseline SBP
Experimental: The effect of certain compounds from Table 1 on blood pressure in freely moving telemetered normal beagle dogs (n=3) after single oral doses was evaluated. The animals were surgically implanted with a pressure transducer equipped telemetry transmitter. The transmitter assembly was secured internally and a fluid-filled catheter was placed into the abdominal aorta to allow for collection of cardiovascular data. To evaluate cardiovascular effects, 3 dogs were given single oral doses of a compound from Table 1 (100% PEG300 in gelatin capsules) at a concentration of 100 mg/mL and at doses of 30 mg/kg. Systemic blood pressure and heart rate were evaluated continuously for 2 hr before and for 24 hr after dosing (results not shown). To compare the pharmacodynamic activity for all tested compounds, the mean systolic blood pressure (SBP) decrease during the first 2 hr post-dose was determined relative to the baseline SBP (30-120 min pre-dose) (Table 6).

[5] = Solid-state stability at 40° C. and 75% RH (purity by HPLC); assay type: physicochemical; conditions: solid powder; for Solid-state stability, purity by HPLC, 0 Months: 0 Months (initial); for Solid-state stability, purity by HPLC, 1 Month: in % (unit assumed)
Experimental: Solid, powdered samples of certain compounds from Table 1 were sealed in double polyethylene bags and stored at 40° C., 75% relative humidity (“RH”) for up to 3 months. A control compound, compound 7 disclosed in WO 2013/059194, was also tested. Initially and after 1 month, 2 months, and 3 months of storage, the samples were analyzed for purity, as determined by high performance liquid chromatography (“HPLC”). Additionally, certain compounds from Table 1 were admixed at a level of 50% by weight with one of the following excipients before stability testing: lactose, microcrystalline cellulose, or croscarmellose sodium. The resulting admixtures were also stored as described above then analyzed for purity of the pyrazolone derivative component, as determined by HPLC. The HPLC apparatus comprised a quaternary or binary pump, an auto sampler, a thermostated column compartment, and a UV/visible detector. The HPLC measurement conditions were as follows: • Column: Zorbax Eclipse XDB-C18, 2.1×50 mm, 3.5 μm (Agilent Technologies, Santa Clara, Calif.) • Injection Volume: 2 μL • Detection Wavelength: 220 nm • Mobile Phase A: 0.1% by volume formic acid (“FA”) in water • Mobile Phase B: 0.1% by volume FA in acetonitrile • Diluent: About 0.2 mg sample/mL acetonitrile • Gradient:
• Flow Rate: 0.8 mL/min • Column Temperature: 25° C.

SMILES | half-life at 1 mM [1] [min] | half-life at 5 μM [2] [min] | half-life at 5 μM [3] [min] | half-life at 5 μM [4] [min] | Solid-state stability, purity by HPLC, 0 Months [5] [%] | Solid-state stability, purity by HPLC, 1 Month [5] | Solid-state stability, purity by HPLC, 2 Months [5] [%] | Solid-state stability, purity by HPLC, 3 Months ([5]; 3 Months) [%] | Mean SBP decrease (normal beagle dogs) [mmHg]
CN1N=C(C(C)(C)C)C(NO)(c2ccccc2)C1=O (stereo not shown) [Compound 113, 3-tert-Butyl-4-(hydroxyamino)-1-methyl-4-phenyl-4,5-dihydro-1H-pyrazol-5-one] |  | 30 | 75 | 53 |  |  |  |  | 18
CN(C)C(=O)c1ccc(C2=NN(C)C(=O)C2(C)NO)cc1 (stereo not shown) [Compound 84, 4-[4-(Hydroxyamino)-1,4-dimethyl-5-oxo-4,5-dihydro-1H-pyrazol-3-yl]-N,N-dimethylbenzamide] |  | 89 | 100 | 161 |  |  |  |  | 15
CN1N=C(c2ccc(S(=O)(=O)N3CCOCC3)cc2)C(C)(NO)C1=O (stereo not shown) [Compound 80, 4-(Hydroxyamino)-1,4-dimethyl-3-[4-(morpholine-4-sulfonyl)phenyl]-4,5-dihydro-1H-pyrazol-5-one] |  | 46 | 49 | 80 |  |  |  |  | 13
CCO/N=C(\C)C1(NO)C(=O)N(C)N=C1C(C)(C)C (stereo not shown) [Compound 112, 3-tert-Butyl-4-[1-(ethoxyimino)ethyl]-4-(hydroxyamino)-1-methyl-4,5-dihydro-1H-pyrazol-5-one] |  | 10 | 21 | 19 |  |  |  |  | 21
CN1N=C(c2ccc(S(=O)(=O)N(C)C)cc2)C(C)(NO)C1=O (stereo not shown) [Compound 49, 4-(4-(hydroxyamino)-1,4-dimethyl-5-oxo-4,5-dihydro-1H-pyrazol-3-yl)-N,N-dimethylbenzenesulfonamide] |  | 52 | 39 | 70 |  |  |  |  | 18
CN1N=C(c2ccc(S(=O)(=O)C(F)(F)F)cc2)C(C)(NO)C1=O (stereo not shown) [Compound 34, 4-(hydroxyamino)-2,4-dimethyl-5-(4-((trifluoromethyl)sulfonyl)phenyl)-2,4-dihydro-3H-pyrazol-3-one] |  | 36 | 25 | 28 |  |  |  |  | 18
CC1=NN(C)C(=O)C1(NO)c1ccccc1 (stereo not shown) [Compound 6, 4-(hydroxyamino)-2,5-dimethyl-4-phenyl-2,4-dihydro-3H-pyrazol-3-one] | 34 | 38 | 12 |  | 99.8 | <10 |  |  | 22
CC(C)S(=O)(=O)c1ccc(C2=NN(C)C(=O)C2(C)NO)cc1 (stereo not shown) [Compound 78, 4-(Hydroxyamino)-1,4-dimethyl-3-[4-(propane-2-sulfonyl)phenyl]-4,5-dihydro-1H-pyrazol-5-one] |  | 43 | 42 | 75 |  |  |  |  | 27

Continued, in another order:

half-life at 1 mM [1] [min] | half-life at 5 μM [2] [min] | half-life at 5 μM [3] [min] | half-life at 5 μM [4] [min] | Solid-state stability, purity by HPLC, 0 Months [5] [%] | Solid-state stability, purity by HPLC, 1 Month [5] | Solid-state stability, purity by HPLC, 2 Months [5] [%] | Solid-state stability, purity by HPLC, 3 Months ([5]; 3 Months) [%] | SMILES | Mean SBP decrease (normal beagle dogs) [mmHg]
237 | 32 | 28 | 37 |  |  |  |  | CN1N=C(c2ccccc2F)C(C)(NO)C1=O (stereo not shown) [Compound 3, 5-(2-fluorophenyl)-4-(hydroxyamino)-2,4-dimethyl-2,4-dihydro-3H-pyrazol-3-one] | 28
 | 39 | 48 | 39 |  |  |  |  | CN1N=C(c2ccc(S(C)(=O)=O)c(F)c2)C(C)(NO)C1=O (stereo not shown) [Compound 40, 5-(3-fluoro-4-(methylsulfonyl)phenyl)-4-(hydroxyamino)-2,4-dimethyl-2,4-dihydro-3H-pyrazol-3-one] | 15
 | 49 | 47 | 113 |  |  |  |  | CN1N=C(c2ccc(S(C)(=N)=O)cc2)C(C)(NO)C1=O (stereo not shown) [Compound 75, 4-(Hydroxyamino)-3-{4-[imino(methyl)oxo-λ^6-sulfanyl]phenyl}-1,4-dimethyl-4,5-dihydro-1H-pyrazol-5-one] | 12
1000 | 80 | 100 | 67 | 98.3 | <10 |  |  | CN1N=C(c2ccccc2)C(C)(NO)C1=O (stereo not shown) [Compound 15, 4-(hydroxyamino)-2,4-dimethyl-5-phenyl-2,4-dihydro-3H-pyrazol-3-one] | 31
50 | 52 | 72 | 61 | 91.2 | <10 | < 10 | < 10 | CN1N=C(c2ccccc2Cl)C(C)(NO)C1=O (stereo not shown) [Compound 2, 5-(2-chlorophenyl)-4-(hydroxyamino)-2,4-dimethyl-2,4-ddihydro-3H-pyrazol-3-one] | 2
 | 49 | 49 | 53 |  |  |  |  | CN1N=C(c2cccc(S(C)(=O)=O)c2)C(C)(NO)C1=O (stereo not shown) [Compound 48, 4-(hydroxyamino)-2,4-dimethyl-5-(3-(methylsulfonyl)phenyl)-2,4-dihydro-3H-pyrazol-3-one] | 17
379 | 49 | 66 | 40 | 99.3 | 97.0 and 61.0 | 68 |  | CN1N=C(c2ccc(S(C)(=O)=O)cc2)C(C)(NO)C1=O (stereo not shown) [Compound 14, 4-(hydroxyamino)-2,4-dimethyl-5-(4-(methylsulfonyl)phenyl)-2,4-dihydro-3H-pyrazol-3-one] | 13
 | 31 | 69 | 38 |  |  |  |  | CN1N=C(c2ccc(C(F)(F)F)cc2)C(C)(NO)C1=O (stereo not shown) [Compound 4, 4-(hydroxyamino)-2,4-dimethyl-5-(4-(trifluoromethyl)phenyl)-2,4-dihydro-3H-pyrazol-3-one] | 6

Source: patent publication US9682938B2, “Pyrazolone derivatives as nitroxyl donors” (Cardioxyl Pharmaceuticals, Inc., priority 2014, dated 2017)
